Measured values from patent US4015974A, “Amido phosphorothiolates” (priority 1972, dated 1977).

How the values were obtained:
Assay type in all cases: in vivo
[1] = tested on: barnyard grass (Echinochloa crus-galli); test: Pre-emergence application, herbicidal effect on barnyard grass (Table 1); parameters: key: 0: not damaged; 5: completely killed; details: 20 days after application, score 0-5
Method in brief: (§1)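 Scores run from 0 (undamaged) to 5 (fully killed), read 20 days post-treatment. Compounds were applied as water-diluted wettable powders to soil over freshly covered seeds in ~10 cm pots, with plants kept in a greenhouse.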

[2] = tested on: large crabgrass (Digitaria sanguinalis); test: Pre-emergence application, herbicidal effect on large crabgrass (Table 1); parameters: key: 0: not damaged; 5: completely killed; details: 20 days after application, score 0-5
Method in brief: as §1

radish = test: Pre-emergence application, herbicidal effect on radish (Table 1); parameters: key: 0: not damaged; 5: completely killed; details: 20 days after application, score 0-5
Method in brief: as §1

[3] = tested on: redroot pigweed (Amaranthus retroflexus); test: Pre-emergence application, herbicidal effect on redroot pigweed (Table 1); parameters: key: 0: not damaged; 5: completely killed; details: 20 days after application, score 0-5
Method in brief: as §1

[4] = tested on: common purslane (Portulaca oleracea); test: Pre-emergence application, herbicidal effect on common purslane (Table 1); parameters: key: 0: not damaged; 5: completely killed; details: 20 days after application, score 0-5
Method in brief: as §1

[5] = tested on: common lambsquarter (Chenopodium album); test: Pre-emergence application, herbicidal effect on common lambsquarter (Table 1); parameters: key: 0: not damaged; 5: completely killed; details: 20 days after application, score 0-5
Method in brief: as §1

rice = test: Water application, phytotoxicity on rice (Table 2); parameters: key: 0: no effect; 1: very slightly affected; 2: slightly affected; 3: moderately affected; 4: considerably affected; 5: completely killed; details: 25 days, score 0-5
Method in brief: (§2)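 Scores (0–5) taken 25 days post-treatment. Wettable-powder formulations were applied into standing water over paddy soil holding 3-leaf-stage transplanted rice, sown Echinochloa and naturally emerging monochoria, false pimpernel and toothcup.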

[6] = tested on: barnyard grass (Echinochloa crus-galli); test: Water application, herbicidal effect on barnyard grass (Table 2); parameters: key: 0: not damaged; 5: completely killed; details: 25 days, score 0-5
Method in brief: as §2

[7] = tested on: broad-leaved weeds, e.g., monochoria, false pimpernel and toothcup; test: Water application, herbicidal effect on broad-leaved weeds (Table 2); parameters: key: 0: not damaged; 5: completely killed; details: 25 days, score 0-5
Method in brief: as §2

Row | Compound | Herbicidal effect, barnyard grass ([1]; 10 g./a.) | Herbicidal effect, barnyard grass ([1]; 20 g./a.) | Herbicidal effect, barnyard grass ([1]; 40 g./a.) | Herbicidal effect, large crabgrass ([2]; 10 g./a.) | Herbicidal effect, large crabgrass ([2]; 20 g./a.) | Herbicidal effect, large crabgrass ([2]; 40 g./a.) | Herbicidal effect, radish (radish; 10 g./a.) | Herbicidal effect, radish (radish; 20 g./a.) | Herbicidal effect, radish (radish; 40 g./a.) | Herbicidal effect, redroot pigweed ([3]; 10 g./a.) | Herbicidal effect, redroot pigweed ([3]; 20 g./a.) | Herbicidal effect, redroot pigweed ([3]; 40 g./a.) | Herbicidal effect, common purslane ([4]; 10 g./a.) | Herbicidal effect, common purslane ([4]; 20 g./a.) | Herbicidal effect, common purslane ([4]; 40 g./a.) | Herbicidal effect, common lambsquarter ([5]; 10 g./a.) | Herbicidal effect, common lambsquarter ([5]; 20 g./a.) | Herbicidal effect, common lambsquarter ([5]; 40 g./a.) | Phytotoxicity on rice (rice; 10 g/a) | Phytotoxicity on rice (rice; 20 g/a) | other results
1 | CCCCCSP(=O)(OCC)SCC(=O)N1CCCC(C)C1 (stereo not drawn) [Compound 72] | 4 | 5 | 5 | 5 | 5 | 5 | 0 | 0 | 0 | 3 | 4 | 5 | 3 | 4 | 5 | 4 | 4 | 5 | 0 | 0 | Phytotoxicity on rice (rice; 40 g/a): 0; Herbicidal effects, barnyard grass ([6]; 10 g/a): 5; Herbicidal effects, barnyard grass ([6]; 20 g/a): 5; Herbicidal effects, barnyard grass ([6]; 40 g/a): 5; Herbicidal effects, broad-leaved weeds ([7]; 10 g/a): 5; Herbicidal effects, broad-leaved weeds ([7]; 20 g/a): 5; Herbicidal effects, broad-leaved weeds ([7]; 40 g/a): 5
2 | CCOP(=O)(SCCC(C)C)SCC(=O)N1CCCC(C)C1 (stereo not drawn) [Compound 73] | 5 | 5 | 5 | 5 | 5 | 5 | 0 | 0 | 0 | 4 | 4 | 5 | 4 | 4 | 5 | 4 | 4 | 5 | 0 | 0 | Phytotoxicity on rice (rice; 40 g/a): 0; Herbicidal effects, barnyard grass ([6]; 10 g/a): 5; Herbicidal effects, barnyard grass ([6]; 20 g/a): 5; Herbicidal effects, barnyard grass ([6]; 40 g/a): 5; Herbicidal effects, broad-leaved weeds ([7]; 10 g/a): 5; Herbicidal effects, broad-leaved weeds ([7]; 20 g/a): 5; Herbicidal effects, broad-leaved weeds ([7]; 40 g/a): 5
3 | CCOP(=O)(SC)SCC(=O)N1CCCCC1CC (stereo not drawn) [Compound 74] | 5 | 5 | 5 | 5 | 5 | 5 | 0 | 1 | 2 | 5 | 5 | 5 | 5 | 5 | 5 | 5 | 5 | 5 | 0 | 0 | Phytotoxicity on rice (rice; 40 g/a): 0; Herbicidal effects, barnyard grass ([6]; 10 g/a): 5; Herbicidal effects, barnyard grass ([6]; 20 g/a): 5; Herbicidal effects, barnyard grass ([6]; 40 g/a): 5; Herbicidal effects, broad-leaved weeds ([7]; 10 g/a): 5; Herbicidal effects, broad-leaved weeds ([7]; 20 g/a): 5; Herbicidal effects, broad-leaved weeds ([7]; 40 g/a): 5
4 | CCOP(=O)(SCC)SCC(=O)N1CCCCC1CC (stereo not drawn) [Compound 75] | 5 | 5 | 5 | 5 | 5 | 5 | 0 | 1 | 2 | 5 | 5 | 5 | 5 | 5 | 5 | 5 | 5 | 5 | 0 | 0 | Phytotoxicity on rice (rice; 40 g/a): 1; Herbicidal effects, barnyard grass ([6]; 10 g/a): 5; Herbicidal effects, barnyard grass ([6]; 20 g/a): 5; Herbicidal effects, barnyard grass ([6]; 40 g/a): 5; Herbicidal effects, broad-leaved weeds ([7]; 10 g/a): 5; Herbicidal effects, broad-leaved weeds ([7]; 20 g/a): 5; Herbicidal effects, broad-leaved weeds ([7]; 40 g/a): 5
5 | CCOP(=O)(SCC(=O)N1CCCCC1CC)SC(C)C (stereo not drawn) [Compound 76] | 5 | 5 | 5 | 5 | 5 | 5 | 0 | 1 | 2 | 5 | 5 | 5 | 5 | 5 | 5 | 5 | 5 | 5 | 0 | 0 | Phytotoxicity on rice (rice; 40 g/a): 0; Herbicidal effects, barnyard grass ([6]; 10 g/a): 5; Herbicidal effects, barnyard grass ([6]; 20 g/a): 5; Herbicidal effects, barnyard grass ([6]; 40 g/a): 5; Herbicidal effects, broad-leaved weeds ([7]; 10 g/a): 5; Herbicidal effects, broad-leaved weeds ([7]; 20 g/a): 5; Herbicidal effects, broad-leaved weeds ([7]; 40 g/a): 5
6 | CCOP(=O)(SCC(=O)N1CCCCC1CC)SCC(C)C (stereo not drawn) [Compound 77] | 5 | 5 | 5 | 5 | 5 | 5 | 0 | 0 | 0 | 5 | 5 | 5 | 5 | 5 | 5 | 5 | 5 | 5 | 0 | 0 | Phytotoxicity on rice (rice; 40 g/a): 1; Herbicidal effects, barnyard grass ([6]; 10 g/a): 5; Herbicidal effects, barnyard grass ([6]; 20 g/a): 5; Herbicidal effects, barnyard grass ([6]; 40 g/a): 5; Herbicidal effects, broad-leaved weeds ([7]; 10 g/a): 5; Herbicidal effects, broad-leaved weeds ([7]; 20 g/a): 5; Herbicidal effects, broad-leaved weeds ([7]; 40 g/a): 5
